According to patent US7897611B2, “Pharmaceutical compositions and methods for relieving pain and treating central nervous system disorders” (Targacept, Inc., priority 2003, dated 2011):

What was measured:
rats = experiment: Rat model of peripheral mononeuropathy (Bennett Model), paw pressure test; type: in vivo; settings: for % Variation of nociceptive threshold, injured paw, vs vehicle-treated group / Nociceptive threshold, injured paw: Bennett model; for Nociceptive threshold, injured paw: paw pressure, mean ± SEM
Method: A rat model of peripheral mononeuropathy (Bennett Model) was also used to evaluate the antihyperalgesic properties of the compounds.
Briefly, peripheral mononeuropathy was induced by loose ligation of the sciatic nerve in anaesthetized rats (pentobarbital; 45 mg/kg by intraperitoneal route). Fourteen days later, the nociceptive threshold was evaluated using a mechanical nociceptive stimulation (paw pressure test). An increasing pressure was applied onto the hindpaw of the animal until the nociceptive reaction (vocalization or paw withdrawal) was reached. The pain threshold (grams of contact pressure) was measured in hindpaws, both ipsilateral (injured side) and contralateral (non-injured side) to the site of sciatic ligation injury, at 10 minutes after the oral treatment for the compounds (1 mg/kg) and 60 minutes after dosing for morphine (60 mg/kg) and vehicle.
The results were expressed as a) the nociceptive threshold (mean±SEM) in grams of contact pressure for the injured paw and for the non-injured paw in the vehicle-treated group, and b) the percentage of variation of the nociceptive threshold calculated from the mean value of the vehicle-treated group.

mice = experiment: Hot plate test in mice (nociceptive reaction latency); type: in vivo; settings: for Reaction Latency: hot plate 52°C, cutoff 30 seconds, mean ± SEM; for % variation of reaction latency: vs saline; for increase of nociceptive reaction latency vs vehicle controls: 1.0 mg/kg oral; for increase of nociceptive reaction latency vs vehicle-control: 60 mg/kg oral
Method: The compounds of Example 1 (administered as the dihydrochloride salt of a 3:1 mixture of 3-(3-pyridinyl)-6-azabicyclo[3.2.1]oct-2-ene and 3-(3-pyridinyl)-6-azabicyclo[3.2.1]oct-3-ene) were evaluated in this Example using a “hot plate” test in mice. Briefly, the compounds of Example 1 (0.03, 0.1 and 0.3 mg free base/kg) were subcutaneously administered five minutes before the hot plate test. Morphine (10 mg/kg) was subcutaneously administered at 15 minutes before the test. Each mouse was placed on a metallic hot plate maintained at 52±0.2° C. The nociceptive reaction latency, characterized by licking reflex of the forepaws or by jumping off the hot plate, was recorded. The cutoff was set to 30 seconds.
The time course of the analgesic effect of the compounds of Example 1 (0.1, 0.3 and 1.0 mg free base/kg) was also assessed using the hot plate test following oral administration. Each dose of the compounds was administered to separate groups of animals at either 5, 15, 30 or 60 minutes prior to hot plate assessment. Morphine (60 mg/kg) and vehicle were also orally administered to separate groups of animals either 5, 15, 30, or 60 minutes before the test. Each mouse was placed on a metallic hot plate maintained at 52±0.2° C. The nociceptive reaction latency, characterized by licking reflex of the forepaws or by jumping off the hot plate, was recorded. The cutoff was set to 30 seconds.

[1] = 1 mg/kg oral, 10 minutes after treatment
[2] = hot plate, 15 minutes after dosing
[3] = 60 mg/kg oral, 60 minutes after dosing

## 3-(3-pyridinyl)-6-azabicyclo[3.2.1]oct-2-ene dihydrochloride and 3-(3-pyridinyl)-6-azabicyclo[3.2.1]oct-3-ene dihydrochloride [Example 1]
rats; 1 mg/kg oral
  behavioral side-effects following dosing: No behavioral side-effects were observed
rats; [1]
  % Variation of nociceptive threshold, injured paw, vs vehicle-treated group: 20%
  Nociceptive threshold, injured paw: 132.0 ± 9.0 g
mice; 0.03 mg free base/kg subcutaneous, five minutes before the test
  Reaction Latency: 19.3 ± 2.8 s
mice; 0.1 mg free base/kg subcutaneous, five minutes before the test
  Reaction Latency: 18.8 ± 2.2 s
mice; 0.3 mg free base/kg subcutaneous, five minutes before the test
  Reaction Latency: 28.2 ± 1.8 s
mice; hot plate, 0.03 mg/kg subcutaneous, five minutes before the test
  % variation of reaction latency: 72%
mice; hot plate, 0.1 mg/kg subcutaneous, five minutes before the test
  % variation of reaction latency: 68%
mice; hot plate, 0.3 mg/kg subcutaneous, five minutes before the test
  % variation of reaction latency: 152%
mice; hot plate, 5 minutes after dosing
  increase of nociceptive reaction latency vs vehicle controls: 82%
mice; [2]
  increase of nociceptive reaction latency vs vehicle controls: 97%
mice; hot plate, lower oral doses (0.1 and 0.3 mg free base/kg), data not shown
  effect on nociceptive threshold vs vehicle-treated group: failed to modify the nociceptive threshold

## CN1CC[C@]23c4c5ccc(O)c4O[C@H]2[C@@H](O)C=C[C@H]3[C@H]1C5 [Morphine, reference compound]
rats; [3]
  % Variation of nociceptive threshold, injured paw, vs vehicle-treated group: 144%
  Nociceptive threshold, injured paw: 268.0 ± 18.9 g
mice; 10 mg/kg subcutaneous, 15 minutes before the test
  Reaction Latency: 29.4 ± 0.5 s
mice; hot plate, 10 mg/kg subcutaneous, 15 minutes before the test
  % variation of reaction latency: 163%
mice; [2]
  increase of nociceptive reaction latency vs vehicle-control: 69%
mice; hot plate, 30 minutes after dosing
  increase of nociceptive reaction latency vs vehicle-control: 47%
mice; hot plate, 60 minutes after dosing
  increase of nociceptive reaction latency vs vehicle-control: 37%

## C1=C(c2cccnc2)CC2CNCC1C2.Cl.Cl (stereo not drawn)
other
  melting point: 219 to 221 °C

## C1=C(c2cccnc2)C2CNCC1C2.Cl.Cl (stereo not drawn)
other
  melting point: 192 to 195 °C
